Source: PMC8831599, “Defining molecular glues with a dual-nanobody cannabidiol sensor” (Nature Communications, 2022)

Tests used:
[1] = target: T1, CA14 (anchor binder nanobody); assay: ITC; […] Å crystal structure of the CA14-CBD-DB21 ternary complex; assay type: binding
T1 construct: nanobody CA14, tag-free; CA14 alone in ITC

[2] = target: T2, TIR1 (Arabidopsis thaliana, UniProt Q570C0); assay: ITC; BLI and AlphaScreen with IAA7 degron; assay type: binding
T2 construct: TIR1-ASK1 co-expressed complex; with ASK1
T2 sequence (Q39255 whole entry): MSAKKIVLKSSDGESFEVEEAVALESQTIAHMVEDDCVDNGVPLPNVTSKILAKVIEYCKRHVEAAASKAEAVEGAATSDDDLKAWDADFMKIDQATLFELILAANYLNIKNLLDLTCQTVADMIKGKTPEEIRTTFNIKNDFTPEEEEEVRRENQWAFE
T2 sequence (Q570C0 whole entry): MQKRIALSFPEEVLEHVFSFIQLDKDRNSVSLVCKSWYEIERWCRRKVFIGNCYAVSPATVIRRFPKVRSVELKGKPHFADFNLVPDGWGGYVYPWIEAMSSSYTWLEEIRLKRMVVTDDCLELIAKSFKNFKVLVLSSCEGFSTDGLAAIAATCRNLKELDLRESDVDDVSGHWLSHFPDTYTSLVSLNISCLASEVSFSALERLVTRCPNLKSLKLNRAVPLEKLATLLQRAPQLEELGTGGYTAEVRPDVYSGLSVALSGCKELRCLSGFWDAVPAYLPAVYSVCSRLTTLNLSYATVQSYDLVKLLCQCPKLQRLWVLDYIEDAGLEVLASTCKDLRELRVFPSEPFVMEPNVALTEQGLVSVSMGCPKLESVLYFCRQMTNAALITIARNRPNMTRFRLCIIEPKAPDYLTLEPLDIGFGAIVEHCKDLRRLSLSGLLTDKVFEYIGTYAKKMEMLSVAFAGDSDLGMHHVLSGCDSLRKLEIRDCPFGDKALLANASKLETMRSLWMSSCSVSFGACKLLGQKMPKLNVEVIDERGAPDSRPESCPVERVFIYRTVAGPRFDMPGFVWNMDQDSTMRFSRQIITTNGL

Structure (SMILES)	Kd [1] [µM]	Kd [2] [µM]
C=C(C)[C@@H]1CCC(C)=C[C@H]1c1c(O)cc(CCCCC)cc1O [CBD, cannabidiol]	2.2	–
O=C(O)Cc1c[nH]c2ccccc12 [auxin]	–	13.4
